Measured values as given in paper PMC7332385 (Journal of the American Society for Mass Spectrometry, 2020).
Read-outs that look alike come from different tables or passages of the source.

Tests used:
β-2-microglobulin (β2m) [1] = conditions: read-out: Kd for Cu(II) bound to β2m, cited from earlier work
[2] = target: Cu(II)-β2m (β-2-microglobulin) (Homo sapiens, UniProt P61769); experiment: CL-MS ligand titration of Cu; type: binding; conditions: read-out: Cu(II)-β2m and EGCG Kd; DEPC (120 μM) labeling of the N-terminal amine; 30 μM β2m, 60 μM Cu(II); triplicate
Cu(II)-β2m (β-2-microglobulin), sequence (P61769 21-119): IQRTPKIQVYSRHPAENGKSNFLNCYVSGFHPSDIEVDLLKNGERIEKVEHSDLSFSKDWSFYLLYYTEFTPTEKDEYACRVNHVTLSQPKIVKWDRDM

β-2-microglobulin (β2m) [3] = conditions: read-out: EGCG-β2m Kd; from size exclusion chromatography data; cited from earlier work

Compound | Kd (β-2-microglobulin (β2m) [1]; in the presence of EGCG) [µM] | Kd (β-2-microglobulin (β2m) [1]; without EGCG) [µM] | Kd [2] [µM] | Kd (β-2-microglobulin (β2m) [3]) [µM]
O=S(=O)([O-])[O-].[Cu+2] [Cu(II), copper sulfate] | 49 | 3 | – | –
O=C(O[C@@H]1Cc2c(O)cc(O)cc2O[C@@H]1c1cc(O)c(O)c(O)c1)c1cc(O)c(O)c(O)c1 [EGCG, epigallocatechin gallate] | – | – | 12 ± 5 | 6
